≈ marks a conversion by molar mass, not a printed value.
Tested on: M. tuberculosis H37Rv
Experiment: microbe, parasite or virus in culture
Settings: Mycobacterium tuberculosis, 192 h, read-out: Mtb MIC (µM)

Structure (SMILES) | MIC [µM]
O=c1[nH]c(SCc2cc(F)cc3c2OC(c2ccccc2)OC3)nc2sc3c(c12)CCCC3 (stereo not drawn) [Z13684502] | 100 (≈ 48.1 µg/mL)
O=C(Nc1ccc(F)cc1)C(c1ccccc1)N1C(=O)NC(c2ccccc2)(c2ccccc2)C1=O (stereo not drawn) [Z14471296] | 100 (≈ 48 µg/mL)
O=C(CN1C(=O)NC(c2ccccc2)(c2ccccc2)C1=O)NC(c1ccccc1)c1ccccc1 [Z14474580] | 100 (≈ 47.6 µg/mL)
CC(NC(=O)CN1C(=O)NC(c2ccccc2)(c2ccccc2)C1=O)c1ccc(Cl)cc1 (stereo not drawn) [Z14475560] | 100 (≈ 44.8 µg/mL)
O=C(COC(=O)c1cc(-c2ccccc2)nn1-c1ccccc1)NC(c1ccccc1)c1ccccc1 [Z15852380] | 100 (≈ 48.8 µg/mL)
O=C(COC(=O)c1cc(-c2cccc3ccccc23)nc2ccccc12)Nc1cc(C(F)(F)F)ccc1N1CCOCC1 [Z18816890] | 100 (≈ 58.6 µg/mL)
O=C1NC2(CCCC2)C(=O)N1Cc1cn(-c2ccccc2)nc1-c1ccc(Cl)cc1 [Z25701709] | 100 (≈ 42.1 µg/mL)
Cc1cccc(-c2nn(-c3ccccc3)cc2C(=O)Oc2ccccc2-c2nc3ccccc3s2)c1 [Z26889353] | 100 (≈ 48.8 µg/mL)
O=C(c1ccc(F)cc1)N1CCN(Cc2nc3sc4c(c3c(=O)[nH]2)CCCC4)CC1 [Z26985512] | 25 (≈ 10.7 µg/mL)
Cc1ccc2nc(-c3ccc(NC(=O)c4cc(-c5ccccc5)nn4-c4ccccc4)cc3)sc2c1 [Z27663993] | 100 (≈ 48.7 µg/mL)
O=C(/C=C/c1cn(-c2ccccc2)nc1-c1ccc(F)cc1)N1CCCS/C1=N\c1ccccc1 [Z27871611] | 100 (≈ 48.3 µg/mL)
O=C(Nc1nc(-c2cccs2)cs1)c1cc(-c2ccccc2)nc2ccccc12 [Z28307167] | 100 (≈ 41.4 µg/mL)
Cc1ccc(-c2cc(C(=O)N3CCN(Cc4nc5ccccc5s4)CC3)c3ccccc3n2)cc1 [Z28583171] | 6.2 (≈ 2.97 µg/mL)
N#Cc1ccc(CN2CCN(C(=O)c3cc(-c4ccccc4)nn3-c3ccccc3)CC2)cc1 [Z28887309] | 50 (≈ 22.4 µg/mL)
CC1(c2ccc3ccccc3c2)NC(=O)N(CC(=O)Nc2nc(-c3ccc4c(c3)CCC4)cs2)C1=O (stereo not drawn) [Z28888852] | 3.1 (≈ 1.54 µg/mL)
Cc1cccc(Oc2ccc(NC(=O)c3nn(-c4ccccc4)c(=O)c4ccccc34)cc2)c1 [Z29906038] | 100 (≈ 44.7 µg/mL)
O=C(Nc1ccc2oc3ccccc3c2c1)c1ccc(=O)n(Cc2ccccc2)n1 [Z30534850] | 100 (≈ 39.5 µg/mL)
CCn1c2ccccc2c2cc(NC(=O)c3cc(-c4ccccc4)nc4ccccc34)ccc21 [Z30593627] | 100 (≈ 44.2 µg/mL)
O=C(NNc1ccc(F)cc1)c1cccc(S(=O)(=O)N2CCc3ccccc3C2)c1 [Z30877419] | 100 (≈ 42.5 µg/mL)

Structure (SMILES) | MIC [µM]
Cc1ccc(-c2cc(C(=O)Oc3ccc(Oc4ccccc4)cc3)c3ccccc3n2)cc1 [Z30908638] | 100 (≈ 43.1 µg/mL)
COc1cc2c(cc1NC(=O)c1ccccc1-c1ccc(C(F)(F)F)cc1)oc1ccccc12 [Z30927947] | 100 (≈ 46.1 µg/mL)
O=S(=O)(c1cccc(C(F)(F)F)c1)N1CCN(c2nc(-c3ccccc3)nc3ccccc23)CC1 [Z31104682] | 100 (≈ 49.9 µg/mL)
O=C1C(=CNc2cccc(C(F)(F)F)c2)c2ccccc2C(=O)N1c1cccc(C(F)(F)F)c1 [Z31274934] | 6.2 (≈ 2.95 µg/mL)
O=C(Nc1ccc(F)c(S(=O)(=O)Nc2cccc(C(F)(F)F)c2)c1)c1cc2ccccc2o1 [Z33249504] | 50 (≈ 23.9 µg/mL)
CN1C(=CC=NNC(=O)c2cn(-c3ccccc3)nc2-c2ccccc2)C(C)(C)c2ccccc21 [Z44838075] | 100 (≈ 46.2 µg/mL)
O=C(OCc1nc2sc3c(c2c(=O)[nH]1)CCCC3)c1cn(-c2ccccc2)nc1-c1ccccc1 [Z53787257] | 100 (≈ 48.3 µg/mL)
O=C(CN1C(=O)NC(c2ccccc2)(c2ccccc2)C1=O)Nc1ccccc1C(=O)NC1CCCC1 [Z54675683] | 100 (≈ 49.7 µg/mL)
O=C(COC(=O)c1c2c(nc3ccccc13)CCN(Cc1ccccc1)C2)Nc1c(F)cccc1F [Z55704575] | 100 (≈ 48.8 µg/mL)
Cc1nn(-c2ccccc2)c2sc(C(=O)N=C3N=C4C=CC(Br)=CN4Cc4ccccc43)cc12 [Z56688850] | 100 (≈ 52.8 µg/mL)
Fc1ccccc1C1Oc2ccccc2C2CC(c3ccc(-c4ccccc4)cc3)=NN21 (stereo not drawn) [Z56764284] | 100 (≈ 42 µg/mL)
Fc1ccc(C2Oc3ccccc3C3CC(c4ccc(-c5ccccc5)cc4)=NN32)cc1 (stereo not drawn) [Z56765649] | 25 (≈ 10.5 µg/mL)
O=C(N=C1N=C2C=CC=CN2Cc2ccccc21)c1cn(-c2ccccc2)nc1-c1ccc(F)cc1 [Z56787786] | 100 (≈ 47.4 µg/mL)
Cc1cc(NC(=O)c2cc(-c3ccc(Cl)cc3)nc3ccccc23)n(-c2ccccn2)n1 [Z56802924] | 100 (≈ 44 µg/mL)
Cc1ccc(-c2nn(-c3ccccc3)cc2CCC(=O)Nc2cccc3ccccc23)cc1 [Z56806542] | 100 (≈ 43.2 µg/mL)
Cc1ccc2nc(-c3ccc(NC(=O)c4cccc(S(=O)(=O)Nc5cccc(C(F)(F)F)c5)c4)cc3)sc2c1 [Z56810513] | 6.2 (≈ 3.52 µg/mL)
Nc1c(-c2ccccc2)c(CN2CCN(c3ccccc3F)CC2)nn1-c1ccc(F)cc1 [Z56903079] | 25 (≈ 11.1 µg/mL)
Cc1ccc(-c2cn3c(C(=S)Nc4ccc(F)cc4)c(-c4ccccc4)c4c3n2CCCC4)cc1 [Z57009953] | 100 (≈ 48 µg/mL)
O=C(N[C@@H](Cc1ccccc1)c1nc2ccccc2[nH]1)c1ccc(-c2cccc(C(F)(F)F)c2)o1 [Z57992786] | 100 (≈ 47.5 µg/mL)

Structure (SMILES) | MIC [µM]
O=C(CN1CCCC1c1ccc2c(c1)OCCCO2)Nc1ccccc1Cc1ccccc1 (stereo not drawn) [Z65195872] | 50 (≈ 22.1 µg/mL)
O=C(CN1C(=O)NC2(CCc3ccccc32)C1=O)NC(c1ccccc1)c1ccc(Cl)cc1 (stereo not drawn) [Z65674656] | 100 (≈ 46 µg/mL)
Cc1ccc(-c2cc(C(=O)N3CCN(Cc4ccncc4)CC3)c3ccccc3n2)cc1 [Z70806128] | 100 (≈ 42.3 µg/mL)
O=C(Nc1ccc(-n2cnc3ccccc32)cc1)c1nn(-c2ccccc2)c(=O)c2ccccc12 [Z82203216] | 100 (≈ 45.7 µg/mL)
O=C(Nc1cn(-c2ccccc2)nc1-c1ccc(F)cc1)Nc1cccc2ccccc12 [Z85924883] | 100 (≈ 42.2 µg/mL)
O=C(CN1C(=O)NC2(CCc3ccccc32)C1=O)c1c(-c2ccc(F)cc2)[nH]c2ccccc12 (stereo not drawn) [Z89714290] | 25 (≈ 11.3 µg/mL)
O=C(CN1C(=O)NC2(CCOc3ccccc32)C1=O)c1c(-c2ccc(F)cc2)[nH]c2ccccc12 (stereo not drawn) [Z89763517] | 3.1 (≈ 1.46 µg/mL)
Cc1ccc(-c2nn(Cc3ccccc3)cc2C2NC(=O)c3ccccc3N2)cc1 (stereo not drawn) [Z94792468] | 100 (≈ 39.4 µg/mL)
O=C(Nc1ccc2c(c1)OCO2)C1CCN(C(=O)c2nn(-c3ccccc3)c(=O)c3ccccc23)CC1 [Z99494278] | 100 (≈ 49.7 µg/mL)
Cc1ccc(-c2cc(C(=O)N3CCC(C(=O)Nc4ccc5c(c4)OCO5)CC3)c3ccccc3n2)o1 [Z99494285] | 100 (≈ 48.4 µg/mL)
O=C(c1nn(Cc2ccccc2)c(=O)c2ccccc12)N1CCN(Cc2ccc3c(c2)CCO3)CC1 [Z102666506] | 100 (≈ 48.1 µg/mL)
O=C(c1ccc2noc(-c3ccccc3)c2c1)N1CCN(Cc2ccc3c(c2)CCO3)CC1 [Z102669950] | 100 (≈ 44 µg/mL)
O=c1[nH]c(CN2CCN(C(c3ccc(F)cc3)c3ccc(F)cc3)CC2)nc2sc3c(c12)CCC3 [Z105382408] | 100 (≈ 49.3 µg/mL)
c1cncc(-c2nc(N3CCN(Cc4ccc5c(c4)CCO5)CC3)c3ccccc3n2)c1 [Z128095220] | 25 (≈ 10.6 µg/mL)
O=C(NN1C(=O)NC(c2ccccc2)(c2ccccc2)C1=O)c1ccc(-c2ccccc2F)o1 [Z137249014] | 100 (≈ 45.5 µg/mL)
O=C(CCc1nc2c(cnn2-c2ccccc2)c(=O)[nH]1)N1CCCC1c1ccc2c(c1)OCCCO2 (stereo not drawn) [Z140090268] | 100 (≈ 48.6 µg/mL)
NC(=O)C1Cc2ccccc2CN1C(=O)CCc1c(-c2ccc(F)cc2)[nH]c2ccccc12 (stereo not drawn) [Z143202488] | 100 (≈ 44.2 µg/mL)
O=c1[nH]c(SCc2cn(-c3ccccc3)nc2-c2ccccc2)nc2c1cnn2-c1ccccc1 [Z150144208] | 3.1 (≈ 1.48 µg/mL)
O=C(c1nn(-c2ccccc2)c(=O)c2ccccc12)N1CCCN(Cc2ccc(Cl)cc2)CC1 [Z212593638] | 50 (≈ 23.6 µg/mL)

Reference: paper doi:10.1101/2025.02.03.636334v1 (biorxiv, 2025)
